Data from US9000010B2, “Alkyl-heterocycle carbamate derivatives, their preparation and their therapeutic application” (Sanofi, priority 2010, dated 2015).

Tests used:
[1] = biological target: T1, FAAH (Fatty Acid Amide Hydrolase) (Mus musculus, UniProt O08914); assay: Radioenzymatic test of FAAH inhibition: hydrolysis of anandamide [ethanolamine 1-3H] by mouse brain membrane homogenates; type: biochemical; conditions: mouse brain membrane homogenate; preincubation 20 min at 25° C.; anandamide 10 μM; read-out: CI50 (concentration which inhibits the control enzymatic activity of FAAH by 50%)
T1 construct: The membrane homogenates are prepared at the time of use by homogenization of the tissues; from tissue; host or cells: mouse brain (minus the cerebellum), membrane homogenate
T1 sequence (O08914 1-579): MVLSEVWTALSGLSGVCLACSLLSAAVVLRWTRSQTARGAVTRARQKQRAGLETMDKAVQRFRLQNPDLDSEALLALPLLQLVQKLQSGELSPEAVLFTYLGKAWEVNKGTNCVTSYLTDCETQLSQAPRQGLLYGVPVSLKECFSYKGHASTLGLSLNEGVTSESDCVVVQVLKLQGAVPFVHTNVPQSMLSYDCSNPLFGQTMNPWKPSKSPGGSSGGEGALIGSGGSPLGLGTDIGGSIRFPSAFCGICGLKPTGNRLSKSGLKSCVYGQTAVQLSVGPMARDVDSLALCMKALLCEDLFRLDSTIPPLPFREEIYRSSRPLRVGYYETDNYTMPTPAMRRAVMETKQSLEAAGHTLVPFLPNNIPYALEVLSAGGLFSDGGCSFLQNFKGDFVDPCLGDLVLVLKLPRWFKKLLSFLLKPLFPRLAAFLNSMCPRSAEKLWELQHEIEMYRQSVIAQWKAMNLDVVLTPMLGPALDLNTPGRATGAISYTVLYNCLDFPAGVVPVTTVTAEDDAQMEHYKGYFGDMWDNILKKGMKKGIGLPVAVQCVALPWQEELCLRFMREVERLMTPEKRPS
Protocol: The compounds of the invention form the subject of pharmacological trials which make it possible to determine their inhibitory effect on the enzyme FAAH (Fatty Acid Amide Hydrolase).
Thus, mouse brains (minus the cerebellum) are removed and stored at −80° C. The membrane homogenates are prepared at the time of use by homogenization of the tissues using a Precellys® device in the reaction buffer (Tris-HCl 10 mM pH=8, NaCl 150 mM and ethylenediaminetetraacetic acid (EDTA) 1 mM). The enzymatic reaction is carried out in 96-well MultiScreen filtration plates in a final volume of 70 μl. Reaction buffer supplemented with bovine serum albumin free from fatty acids (BSA, 1 mg/ml) is used for the enzymatic reaction, the dilution of the compounds and the dilution of the anandamide [ethanolamine 1-^3H]. Reaction buffer comprising the BSA (43 μl/well), the diluted test compounds at different concentrations (7 μl/well comprising 1% of DMSO) and the membrane preparation (10 μl/well, i.e. 200 μg of tissue per trial) are successively added to the wells. After preincubating the compounds with the enzyme at 25° C. for 20 minutes, the reaction is initiated by the addition of anandamide [ethanolamine 1-^3H] (specific activity of 15-20 Ci/mmol) diluted with cold anandamide (10 μl/well, final concentration of 10 μM, 0.01 μCi, per trial). After incubating at 25° C. for 20 minutes, the enzymatic reaction is halted by addition of a […] active charcoal solution prepared in a 1.5M NaCl and 0.5M HCl buffer (50 μl/well). The mixture is stirred for 10 minutes and then the aqueous phase comprising the [1-^3H]ethanolamine is recovered by filtration under vacuum and counted by liquid scintillation.

Compound	IC50 [1] [nM]	melting point [°C]
O=C(OCc1cscn1)N1CCC(COc2cnc3ccccc3c2)C1 (racemic) [No. 26, Thiazol-4-ylmethyl (+/−)-3-(quinolin-3-yloxymethyl)-pyrrolidine-1-carboxylate]	86	83 to 85
O=C(OCc1nccs1)N1CCC(COc2ccc3c(Cl)cccc3c2)C1 (racemic) [No. 196, Thiazol-2-ylmethyl (+/−)-3-(5-chloronaphth-2-yloxymethyl)pyrrolidine-1-carboxylate]	252	100 to 102
NC(=O)c1cc(COC(=O)N2CC[C@@H](COc3ccc4ccccc4c3)C2)on1 (single isomer, unassigned) [No. 200]	122	138 to 140
NC(=O)c1cc(COC(=O)N2CC[C@H](COc3ccc4ccccc4c3)C2)on1 (single isomer, unassigned) [No. 202]	8	139 to 141
O=C(OCc1nccs1)N1CCC(CCOc2ccc(C3CCCC3)cc2)CC1 [No. 38, Thiazol-2-ylmethyl 4-[2-(4-cyclopentylphenoxy)-ethyl]piperidine-1-carboxylate]	14	–
O=C(OCc1nccs1)N1CCC(CCOc2ccccc2-c2nc3ccccc3o2)CC1 [No. 39, Thiazol-2-ylmethyl 4-[2-(2-{benzoxazol-2-yl}-phenoxy)ethyl]piperidine-1-carboxylate]	13	–
O=C(OCc1nccs1)N1CCC(CCOc2ccc(Cc3ccccc3)cc2)CC1 [No. 49, Thiazol-2-ylmethyl 4-[2-(4-benzylphenoxy)ethyl]-piperidine-1-carboxylate]	19	–
CCCCOc1cccc(OCCC2CCN(C(=O)OCc3nccs3)CC2)c1 [No. 60, Thiazol-2-ylmethyl 4-[2-(3-butoxyphenoxy)ethyl]-piperidine-1-carboxylate]	95	–
CCCCOc1cccc(OCCC2CCN(C(=O)OCc3cscn3)CC2)c1 [No. 90, Thiazol-4-ylmethyl 4-[2-(3-butoxyphenoxy)ethyl]-piperidine-1-carboxylate]	92	–
NC(=O)c1cc(COC(=O)N2CCC(CCOc3ccc(OC(F)(F)F)cc3)CC2)on1 [No. 199, 3-Carbamoylisoxazol-5-ylmethyl 4-[2-(4-{trifluoromethoxy}phenoxy)ethyl]piperidine-1-carboxylate]	350	112 to 115
